From PubChem BioAssay (NCI)
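In this assay, cells in 96-well plates receive the compound at five concentrations for 48 hours. Endpoints are linearly interpolated between the surrounding concentrations. TGI: total growth inhibition.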

Key:
Experiment in all cases: NCI tumour cell line growth inhibition, 48 h
[1] = test system: SN12C renal
[2] = test system: XF 498 CNS
[3] = test system: KM12 colon
[4] = test system: SNB-19 CNS
[5] = test system: COLO 205 colon
[6] = test system: OVCAR-8 ovarian
[7] = test system: EKVX NSCLC
[8] = test system: U251 CNS
[9] = test system: DMS 114 small cell lung
[10] = test system: RXF 393 renal
[11] = test system: RPMI-8226 leukemia
[12] = test system: KM20L2 colon
[13] = test system: NCI-H23 lung
[14] = test system: SF-268 CNS
[15] = test system: NCI-H460 lung
[16] = test system: SK-MEL-28 melanoma
[17] = test system: HCT-15 colon
[18] = test system: M19-MEL melanoma
[19] = test system: OVCAR-4 ovarian
[20] = test system: 786-0 renal
[21] = test system: UO-31 renal
[22] = test system: A549 NSCLC
[23] = test system: NCI-H522 lung
[24] = test system: SK-MEL-2 melanoma
[25] = test system: SK-MEL-5 melanoma
[26] = test system: K-562 leukemia
[27] = test system: HCC-2998 colon
[28] = test system: HL-60(TB) leukemia
[29] = test system: UACC-62 melanoma
[30] = test system: OVCAR-5 ovarian
[31] = test system: CAKI-1 renal
[32] = test system: RXF-631 renal
[33] = test system: ACHN renal
[34] = test system: IGROV1 ovarian
[35] = test system: LOX IMVI melanoma
[36] = test system: SW-620 colon
[37] = test system: SF-295 CNS
[38] = test system: HOP-62 NSCLC
[39] = test system: CCRF-CEM leukemia
[40] = test system: M14 melanoma
[41] = test system: UACC-257 melanoma
[42] = test system: NCI-H226 lung
[43] = test system: SNB-78 CNS
[44] = test system: SF-539 CNS
[45] = test system: MALME-3M melanoma
[46] = test system: LXFL 529 NSCLC
[47] = test system: SK-OV-3 ovarian
[48] = test system: SR leukemia
[49] = test system: MOLT-4 leukemia
[50] = test system: HCT-116 colon
[51] = test system: OVCAR-3 ovarian
[52] = test system: HT29 colon
[53] = test system: TK-10 renal
[54] = test system: HOP-92 NSCLC
[55] = test system: SNB-75 CNS
[56] = test system: DMS 273 small cell lung

Measured: TGI

CC1=C(c2ccccc2)CON(c2ccccc2)C1
97.5 µM: [21]
86.2 µM: [10] | [16]
79.9 µM: [50]
53.8 µM: [23]
76.2 µM: [28]
47.5 µM: [25]
69 µM: [8]
77.4 µM: [32]
not listed: [53] | [54] | [55] | [56]
> 100 µM: all other assays above

N#CCc1ccccc1/C(C#N)=C1/OC(=N)C(c2ccccc2CC#N)C1=O (centres undefined)
not listed: [1] | [2] | [4] | [5] | [6] | [8] | [9] | [10] | [13] | [15] | [17] | [19] | [21] | [24] | [27] | [30] | [38] | [43] | [45]
> 100 µM: all other assays above
